Calls of active or inactive are those of the source. No cut-off for these calls is given here.
Tests used:
[1] = system: PC-3; test: Antiproliferative activity against human PC3 cells assessed as growth inhibition at 30 uM by MTS assay; assay type: functional; details: read-out: GI
[2] = target: T1, Tubulin (Sus scrofa) (UniProt P02554+P02550); test: Induction of purified porcine brain tubulin polymerization at 50 uM by spectrophotometric analysis
[3] = system: PC-3; test: Antiproliferative activity against human PC3 cells assessed as growth inhibition by MTS assay; assay type: functional, cell-based
[4] = system: DU-145; test: Antiproliferative activity against human DU145 cells assessed as growth inhibition by MTS assay; assay type: functional, cell-based
[5] = system: MDA-MB-231; test: Antiproliferative activity against human MDA-MB-231 cells assessed as growth inhibition by MTS assay; assay type: functional, cell-based
[6] = target: T1, Tubulin (Sus scrofa); test: Induction of purified porcine brain tubulin polymerization assessed as microtubule-stabilization at 50 uM by spectrophotometric analysis

T1 sequence (P02550 whole entry, looked up): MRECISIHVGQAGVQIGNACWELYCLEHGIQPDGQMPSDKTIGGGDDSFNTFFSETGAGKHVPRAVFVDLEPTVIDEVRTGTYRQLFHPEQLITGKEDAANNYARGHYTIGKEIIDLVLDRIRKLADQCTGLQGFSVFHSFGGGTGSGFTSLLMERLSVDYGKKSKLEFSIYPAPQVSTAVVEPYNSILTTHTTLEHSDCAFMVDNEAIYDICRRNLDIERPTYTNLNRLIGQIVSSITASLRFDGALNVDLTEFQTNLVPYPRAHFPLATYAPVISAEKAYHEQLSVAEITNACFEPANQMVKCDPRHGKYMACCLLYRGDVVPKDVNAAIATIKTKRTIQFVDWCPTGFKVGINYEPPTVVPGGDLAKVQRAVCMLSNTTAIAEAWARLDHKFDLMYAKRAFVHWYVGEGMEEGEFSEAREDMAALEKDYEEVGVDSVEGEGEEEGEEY
T1 sequence (P02554 whole entry, looked up): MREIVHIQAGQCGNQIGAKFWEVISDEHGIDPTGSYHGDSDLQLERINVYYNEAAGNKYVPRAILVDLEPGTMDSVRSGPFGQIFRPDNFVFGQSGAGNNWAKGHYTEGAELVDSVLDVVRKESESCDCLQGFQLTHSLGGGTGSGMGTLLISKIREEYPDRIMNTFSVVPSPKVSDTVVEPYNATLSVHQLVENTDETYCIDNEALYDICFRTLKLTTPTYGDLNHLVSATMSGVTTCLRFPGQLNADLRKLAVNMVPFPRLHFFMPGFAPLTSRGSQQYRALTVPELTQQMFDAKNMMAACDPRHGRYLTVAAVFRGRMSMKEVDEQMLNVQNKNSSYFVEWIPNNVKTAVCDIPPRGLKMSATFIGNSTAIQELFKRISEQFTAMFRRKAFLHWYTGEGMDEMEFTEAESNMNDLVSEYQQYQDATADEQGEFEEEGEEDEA

Row | SMILES | Activity [2] | IC50 [3] [µM] | IC50 [4] [µM] | IC50 [5] [µM] | Activity [6] | inhibition of growth at 30 µM [1] [%]
1 | Cc1ccc(N2C(=O)c3ccccc3C2=O)cc1C | – | – | – | – | – | < 10
2 | COc1ccc(N2C(=O)c3ccccc3C2=O)cc1OC | – | – | – | – | – | 10.2
3 | O=C1c2ccccc2C(=O)N1c1ccc(Cl)c(Cl)c1 | – | – | – | – | – | < 10
4 | O=C1c2ccccc2C(=O)N1c1c(F)cccc1F | – | – | – | – | – | < 10
5 | O=C1c2ccccc2C(=O)N1c1ccc2ccccc2c1 | – | – | – | – | – | 16
6 | O=C1c2ccccc2C(=O)N1c1ccc(Cl)cc1Cl | – | – | – | – | – | < 10
7 | Cc1cccc(C)c1N1C(=O)c2ccccc2C1=O | – | – | – | – | – | < 10
8 | O=C1c2ccccc2C(=O)N1c1ccc([N+](=O)[O-])c(C(F)(F)F)c1 | – | – | – | – | – | < 10
9 | Cc1cccc(C)c1N1C(=O)c2ccc(O)cc2C1=O | – | > 50 | > 50 | > 50 | inactive | –
10 | O=C1c2ccccc2C(=O)N1c1c(Cl)cccc1Cl | – | – | – | – | – | < 10
11 | COC(=O)c1ccc2c(c1)C(=O)N(c1c(C(C)C)cccc1C(C)C)C2=O | – | 21.8 | 24.6 | 6.87 | – | –
12 | O=C1c2ccccc2C(=O)N1c1c(Br)cccc1Br | – | – | – | – | – | 21.9
13 | CCc1cccc(CC)c1N1C(=O)c2ccc(O)cc2C1=O | – | > 50 | 45.9 | 29.2 | Active | –
14 | O=C1c2ccccc2C(=O)N1c1cc(Cl)ccc1Cl | – | – | – | – | – | < 10
15 | O=C1c2ccccc2C(=O)N1c1cccc2ccccc12 | – | – | – | – | – | < 10
16 | O=C1c2ccccc2C(=O)N1c1cc(Cl)cc(Cl)c1 | – | – | – | – | – | < 10

Second part, led by results:

Row | Activity [2] | IC50 [3] [µM] | IC50 [4] [µM] | IC50 [5] [µM] | Activity [6] | SMILES | inhibition of growth at 30 µM [1] [%]
17 | Active | 2.07 | 3.94 | 7.24 | – | CC(C)c1cccc(C(C)C)c1N1C(=O)c2ccc(N)cc2C1=O | –
18 | – | 6.4 | 9.16 | 5.56 | – | CC(C)c1cccc(C(C)C)c1N1C(=O)c2ccc(C(=O)O)cc2C1=O | –
19 | – | 38.3 | > 50 | 37.7 | – | CC(C)c1cccc(C(C)C)c1N1C(=O)c2cccc([N+](=O)[O-])c2C1=O | –
20 | – | 8.02 | 6.62 | 4.85 | – | Cc1ccc2c(c1)C(=O)N(c1c(C(C)C)cccc1C(C)C)C2=O | –
21 | – | 4.01 | 7.12 | 4.12 | – | CC(C)c1cccc(C(C)C)c1N1C(=O)c2ccccc2C1=O | –
22 | – | 6.26 | 8.14 | 7.24 | – | CC(C)c1cccc(C(C)C)c1N1C(=O)c2cccc(N)c2C1=O | –
23 | Active | 8.3 | 5.74 | 5.35 | Active | CC(C)c1cccc(C(C)C)c1N1C(=O)c2ccc(O)cc2C1=O | > 90
24 | – | 5.52 | 14.1 | 10.6 | – | CC(C)c1cccc(C(C)C)c1N1C(=O)c2ccc(Cl)cc2C1=O | –
25 | – | – | 15 | > 50 | – | CC(C)c1cccc(C(C)C)c1N1C(=O)c2ccc([N+](=O)[O-])cc2C1=O | –
26 | Active | 45.2 | 45.6 | 15 | – | CC(C)c1cccc(C(C)C)c1N1C(=O)c2cccc(O)c2C1=O | –

From ChEMBL document CHEMBL3091346, “Structure-activity relationship studies of thalidomide analogs with a taxol-like mode of action” (Bioorg Med Chem Lett, 2013)
